The source of these data is patent US8530385B2, “Herbicidal formulations for combinations of dimethylamine and potassium salts of glyphosate” (Donaghys Industries Limited, priority 2007, dated 2013).

The conditions of this data set: laboratory conditions; fully loaded with surfactant. An excerpt: Dimethylamine is a flammable gas and generally provided as an aqueous solution at concentrations of about 40%. As such, it is difficult to obtain highly concentrated salts of glyphosate using only DMA solution as starting material.
In contrast to IPA, DMA has a […] flash and boiling point and supplied as 40% solution.

Regarding `CNC.O=C(O)CNCP(=O)(O)O` [DMA glyphosate, dimethylamine salt of glyphosate], the “maximum stable fully loaded concentration of glyphosate” value turned out to be 560 gae/L.
